A short description of experiment [1]: Vmax towards phosphodiesterase I and II; NS = Non-substrate.
Experiment [2] can be described thus: Vmax towards phosphodiesterase 1.
The nature of experiment [3]: Ratio of Vmax to that of Km towards phosphodiesterase I (PDE I).
Experiment [4] in a line: Ratio of Vmax to that of Km towards phosphodiesterase II (PDE II).
Experiment [5] in a line: Affinity for phosphodiesterase 1.

On to `Nc1ccn(C2C[C@@H](OP(=O)(O)OC[C@H]3OC[C@H](n4ccc(N)nc4=O)[C@H]3O)[C@@H](COP(=O)(O)O)O2)c(=O)n1` (some centres undefined), for which the Vmax result in experiment [1] was “Non substrate”.
For the compound `Nc1ccn(C2C[C@@H](O)[C@@H](COP(=O)(O)O[C@@H]3CC(n4ccc(N)nc4=O)O[C@@H]3CO)O2)c(=O)n1` (some centres undefined), the Vmax in experiment [2] came to 1450 mM/min. The Ratio in experiment [3] is 1610; in experiment [4], 87.8. The Km in experiment [5] was determined as 900 µM.
Regarding `Nc1ccn([C@H]2C[C@H](O)[C@@H](COP(=O)(O)O[C@H]3[C@H](n4cnc5c(N)ncnc54)CO[C@@H]3COP(=O)(O)O)O2)c(=O)n1`, the Vmax result in experiment [1] is “Non substrate”.
In the case of `Nc1ccn(C2C[C@@H](O)[C@@H](COP(=O)(O)O[C@@H]3CC(n4cnc5c(N)ncnc54)O[C@@H]3CO)O2)c(=O)n1` (some centres undefined), the Vmax in experiment [2] was 141 mM/min. The figures for the Ratio in experiment [3] and in experiment [4] were 52.4 and 21.1, respectively. Further, in experiment [5], the Km turned out to be 2700 µM.
The like results for `Nc1ccn(C2C[C@@H](O)[C@@H](COP(=O)(O)O[C@H]3[C@@H](CO)OC[C@@H]3n3cnc4c(N)ncnc43)O2)c(=O)n1` (some centres undefined) were, in that order, 19.2 mM/min, 15.4, 4.5 and 1250 µM.

One may read the Vmax as the rate approached at saturating substrate. One may read the Km as the concentration of substrate that gives half-maximal velocity.
